Data set [1] in a line: Chemical hydrolysis of HPGM to HPG (chemical blank, no enzyme). The class given is physicochemical. Particulars: water pH 8.7, 2° C. Here is the method: (§1) The reactions were followed by quantitative HPLC analysis. The retention factors of 7-TMCA, HPGM, HPG and 5-mercapto-1-methyltetrazole were calculated using standards; the retention factor of D-7-(4-hydroxyphenylacetamido)-3-(1-methyl-1H-tetrazol-5-yl)thiomethylcephem-4-carboxylic acid was deducted based on mass balance in the first experiments and subsequently calculated using standard; the retention factor of cefatrizine was deducted on mass balance.
During the enzymatic condensation of 7-TMCA and HPGM the latter compound was hydrolyzed to HPG. […] Two reactions were started in parallel at 2° C. […] In one of the reactors immobilized penicillin G acylase mutant 1 (5 g) was added and the two reactions were monitored by analytical HPLC.

Data set [2] addresses T1, immobilized penicillin G acylase mutant 1 (Escherichia coli, UniProt P06875, F313A/F749L/S29L/V218E/V437L).
T1 construct: mutations V11A, A:S3L, A:V192E, B:F24A, B:V148L and B:F460L; made in house
Description: Enzymatic hydrolysis of HPGM to HPG. The format is biochemical. Particulars: water pH 8.7, 2° C., immobilized penicillin G acylase mutant 1 (5 g).
Excerpt: The production, isolation and purification of wild type and mutant penicillin G acylases may be carried out as described in WO 1996/005318 and WO 2003/055998. Alternatively, genes encoding mutant penicillin G acylases may be obtained by gene synthesis. Production of the mutant penicillin G acylase was achieved by cloning the genes encoding mutant penicillin G acylases into an appropriate expression vector, transforming a suitable host such as Escherichia coli with said vector and culturing the transformed host under conditions suitable for the production of the mutant penicillin G acylases and recovery and purification of the mutants was carried out as described in WO 2010/072765. […]
as §1
During the enzymatic condensation of 7-TMCA and HPGM the latter compound was hydrolyzed to HPG. […] In one of the reactors immobilized penicillin G acylase mutant 1 (5 g) was added and the two reactions were monitored by analytical HPLC.

The nature of data set [3]: Chemical degradation of 7-TMCA to 5-mercapto-1-methyltetrazole during dissolution and enzymatic condensation. As to conditions: during the dissolution step, titration with aqueous NaOH 5M. The format is physicochemical. Here is the method:
as §1
7-Amino-3-(1-methyl-1H-tetrazol-5-ylthiomethyl)-3-cephem-4-carboxylic acid (7-TMCA; 5 g) was added to distilled water (38 g) and cooled to 3° C. The mixture was stirred at 400 rpm and the pH was brought to 9.0 with aqueous NaOH (5M) whereafter the remainder of the reaction was carried out at pH 8.8. After 60-80 min, the suspension was filtered. The filtrate, containing 4.1 g of 7-TMCA, was place back in the reactor and immobilized penicillin G acylase mutant 1 (3.5 g, see Materials and Methods) was added and to the resulting mixture a solution of D-4-hydroxyphenylglycine methylester (HPGM) was dropped at speed of 7 mL/h by a syringe pump (dosing time 2 h). This solution was prepared by dissolving HPGM (4.0 g, 1.7 equiv.) in water (6.4 g) and H2SO4 25% (4.25 g in water). The enzymatic reaction was followed by analytical HPLC (see Materials and Methods) and stopped at the end of HPGM addition, by enzyme filtration. […]

As to `COC(=O)[C@H](N)c1ccc(O)cc1` [HPGM, D-4-hydroxyphenylglycine methylester], the “HPGM hydrolyzed in the chemical blank” value in data set [1] (20 h) came to 9%. Besides, the “formation of HPG from HPGM in the chemical blank” value in data set [1] (within 2 h) is on record as “no HPG was recorded”. Also, in data set [2], the “time to complete conversion of HPGM to HPG by the enzyme” value was not above 5 min.

As for `Cn1nnnc1SCC1=C(C(=O)O)N2C(=O)[C@@H](N)[C@H]2SC1` [Example 7-TMCA, 7-amino-3-(1-methyl-1H-tetrazol-5-ylthiomethyl)-3-cephem-4-carboxylic acid], the “amount of 5-mercapto-1-methyltetrazole (degradation product of 7-TMCA)” value in data set [3] is “not detectable”.
